In patent US20090099167A1, “Organic compounds” (Novartis Institutes for Biomedical Research, priority 2004, published 2009) one finds IC50 data, which are given here for 20 compounds.

One assay has as its target T1, human Flt-3 (Homo sapiens, UniProt P36888).
T1 construct: expressing the amino acid region amino acids 563-993 of the cytoplasmic kinase domain of human Flt-3; made in house; host or cells: Sf9 (baculovirus)
T1 sequence (P36888 563-993): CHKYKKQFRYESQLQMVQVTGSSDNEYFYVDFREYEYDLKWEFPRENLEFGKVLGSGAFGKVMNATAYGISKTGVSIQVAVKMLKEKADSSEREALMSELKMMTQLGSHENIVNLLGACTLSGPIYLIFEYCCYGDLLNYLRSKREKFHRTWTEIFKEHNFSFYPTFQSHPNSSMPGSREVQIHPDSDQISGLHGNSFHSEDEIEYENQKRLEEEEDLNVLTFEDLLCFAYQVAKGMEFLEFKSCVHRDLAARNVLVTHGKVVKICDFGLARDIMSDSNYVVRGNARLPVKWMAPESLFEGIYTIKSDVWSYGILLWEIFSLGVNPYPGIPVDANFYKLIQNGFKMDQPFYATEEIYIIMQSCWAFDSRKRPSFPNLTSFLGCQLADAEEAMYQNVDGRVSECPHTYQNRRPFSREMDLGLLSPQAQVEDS
Briefly: Flt3 kinase inhibition, GST-Flt-3, 33P incorporation into poly(Glu,Tyr). The format is biochemical. On the procedure: (§1) The compounds to be tested are then diluted in culture medium (without FCS, with 0.1% bovine serum albumin) and added to the cells. (Controls comprise medium without test compounds). After two hours' incubation at 37° C., recombinant VEGF is added; the final VEGF concentration is 20 ng/ml). After a further five minutes incubation at 37° C., the cells are washed twice with ice-cold PBS (phosphate-buffered saline) and immediately lysed in 100 μl lysis buffer per well. The lysates are then centrifuged to remove the cell nuclei, and the protein concentrations of the supernatants are determined using a commercial protein assay (BIORAD). The lysates can then either be immediately used or, if necessary, stored at −20° C. A sandwich ELISA is carried out to measure the VEGF-R2 phosphorylation: a monoclonal antibody to VEGF-R2 (for example Mab 1495.12.14; ProQinase, Freiburg, Germany) is immobilized on black ELISA plates (OptiPlate™ HTRF-96 from Packard). The plates are then washed and the remaining free protein-binding sites are saturated with 3% TopBlock® (Juro, Cat. # TB232010) in phosphate buffered saline with Tween 20® (polyoxyethylen(20)-sorbitane monolaurate, ICI/Uniquema) (PBST). The cell lysates (20 μg protein per well) are then incubated in these plates overnight at 4° C. together with an antiphosphotyrosine antibody coupled with alkaline phosphatase (PY20:AP from Zymed). […] The luminescence is measured in a Packard Top Count Microplate Scintillation Counter. The difference between the signal of the positive control (stimulated with VEGF) and that of the negative control (not stimulated with VEGF) corresponds to VEGF-induced VEGF-R2 phosphorylation (=100%). The activity of the tested substances is calculated as percent inhibition of VEGF-induced VEGF-R2 phosphorylation, wherein the concentration of substance that induces half the maximum inhibition is defined as the IC50 (inhibitory dose for 50% inhibition). […] Flt3 kinase inhibition is determined as follows: The baculovirus donor vector pFbacG01 (GIBCO) is used to generate a recombinant baculovirus expressing the amino acid region amino acids 563-993 of the cytoplasmic kinase domain of human Flt-3. The coding sequence for the cytoplasmic domain of Flt-3 is amplified by PCR from human c-DNA libraries (Clontech). The amplified DNA fragments and the pFbacG01 vector are made compatible for ligation by digestion with BamH1 and HindIII. Ligation of these DNA fragments results in the baculovirus donor plasmid Flt-3(1.1). The production of the viruses, the expression of proteins in Sf9 cells and the purification of the GST-fused proteins are performed as follows: Production of virus: Transfer vector (pFbacG01-Flt-3) containing the Flt-3 kinase domain is transfected into the DH10Bac cell line (GIBCO) and the transfected cells are plated on selective agar plates. Colonies without insertion of the fusion sequence into the viral genome (carried by the bacteria) are blue. Single white colonies are picked and viral DNA (bacmid) is isolated from the bacteria by standard plasmid purification procedures. Sf9 or Sf21 cells (American Type Culture Collection) are then transfected in flasks with the viral DNA using Cellfectin reagent. Determination of small scale protein expression in Sf9 cells: Virus containing media is collected from the transfected cell culture and used for infection to increase its titre. Virus containing media obtained after two rounds of infection is used for large-scale protein expression. For large-scale protein expression 100 cm^2 round tissue culture plates are seeded with 5×10^7 cells/plate and infected with 1 mL of virus-containing media (approx. 5 MOIs). After 3 days the cells are scraped off the plate and centrifuged at 500 rpm for 5 min. Cell pellets from 10-20, 100 cm^2 plates, are resuspended in 50 mL of ice-cold lysis buffer (25 mMTris-HCl, pH 7.5, 2 mM EDTA, 1% NP-40, 1 mM DTT, 1 mM PMSF). The cells are stirred on ice for 15 min and then centrifuged at 5000 rpms for 20 min. […]

Assay [1] deals with T2, human VEGF-R2 receptor (KDR) (Homo sapiens, UniProt P35968).
T2 construct: expressed in transfected cells; host or cells: CHO cells
T2 sequence (P35968 20-1356): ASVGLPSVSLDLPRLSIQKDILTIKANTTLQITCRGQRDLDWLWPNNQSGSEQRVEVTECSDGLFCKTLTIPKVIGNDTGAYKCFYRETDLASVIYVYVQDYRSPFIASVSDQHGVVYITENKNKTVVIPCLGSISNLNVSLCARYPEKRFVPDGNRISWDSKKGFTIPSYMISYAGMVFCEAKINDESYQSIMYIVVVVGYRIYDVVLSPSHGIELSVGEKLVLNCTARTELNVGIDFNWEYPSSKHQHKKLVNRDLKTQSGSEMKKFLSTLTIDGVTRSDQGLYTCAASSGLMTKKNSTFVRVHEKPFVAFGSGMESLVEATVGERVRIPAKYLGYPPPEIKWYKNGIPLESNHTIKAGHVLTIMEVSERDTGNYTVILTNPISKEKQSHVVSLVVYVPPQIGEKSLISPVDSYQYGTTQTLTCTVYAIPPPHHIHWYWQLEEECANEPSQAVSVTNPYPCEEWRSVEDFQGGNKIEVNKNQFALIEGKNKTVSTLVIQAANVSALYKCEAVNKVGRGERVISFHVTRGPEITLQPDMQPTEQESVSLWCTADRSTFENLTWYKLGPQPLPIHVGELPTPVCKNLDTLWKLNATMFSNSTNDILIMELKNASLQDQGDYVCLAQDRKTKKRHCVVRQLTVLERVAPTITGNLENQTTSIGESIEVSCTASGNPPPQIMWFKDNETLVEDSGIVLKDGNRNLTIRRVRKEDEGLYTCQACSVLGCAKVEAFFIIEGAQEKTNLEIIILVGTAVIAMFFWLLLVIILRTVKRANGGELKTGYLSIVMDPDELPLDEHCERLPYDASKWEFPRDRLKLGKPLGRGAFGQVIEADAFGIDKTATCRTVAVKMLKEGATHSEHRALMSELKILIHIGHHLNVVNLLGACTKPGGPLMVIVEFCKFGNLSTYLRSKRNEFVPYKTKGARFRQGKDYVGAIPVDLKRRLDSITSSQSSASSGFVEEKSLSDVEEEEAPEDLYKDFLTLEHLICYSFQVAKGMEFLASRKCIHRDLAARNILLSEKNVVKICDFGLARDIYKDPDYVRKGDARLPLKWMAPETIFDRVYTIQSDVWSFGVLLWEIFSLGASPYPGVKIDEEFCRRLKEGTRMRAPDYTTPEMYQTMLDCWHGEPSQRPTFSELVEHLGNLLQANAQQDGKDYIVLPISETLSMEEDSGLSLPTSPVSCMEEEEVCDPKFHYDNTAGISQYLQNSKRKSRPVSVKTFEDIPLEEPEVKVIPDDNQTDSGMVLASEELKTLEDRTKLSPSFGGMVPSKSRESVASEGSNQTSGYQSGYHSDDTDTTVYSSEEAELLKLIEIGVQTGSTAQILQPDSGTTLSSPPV
The assay is described as follows: VEGF-induced KDR autophosphorylation in transfected CHO cells, sandwich ELISA. The following applies: Table 5; read-out: KDR, IC50 class. The format is cell-based. On the procedure: as §1
For orientation: An ELISA detects its analyte on a solid surface through an enzyme-linked reagent.

Where [2] appears, read: Table 5, read-out: Flt-3, IC50 class.

Where two headings read alike, the source gives them in different places.

The term IC50 denotes the midpoint of a concentration-inhibition curve. As to `CN1CCN(c2cccc(-c3cnn4c(N)c(-c5ccc(O)cc5)cnc34)c2)CC1` [Example 39, 4-{7-Amino-3-[3-(4-methyl-piperazin-1-yl)-phenyl]-pyrazolo[1,5-a]pyrimidin-6-yl}-phenol], the IC50 on human Flt-3 (Table 4, read-out: Flt-3, activity (IC50 for kinase inhibition)) is below 10 µM.
Turning to `Cc1nc2c(-c3cccc(N4CCN(C)CC4)c3)cnn2c(N)c1-c1cccc(Cl)c1` [Example 72, 6-(3-Chloro-phenyl)-5-methyl-3-[3-(4-methyl-piperazin-1-yl)-phenyl]-pyrazolo[1,5-a]pyrimidin-7-ylamine], the figures for the IC50 (in assay [1]; on human Flt-3 (setting [2])) were below 1 µM and above 10 µM, respectively.
Consider `Cc1nc2c(-c3ccc(N4CCN(C)CC4)cc3)cnn2c(N)c1-c1cccc(Cl)c1` [Example 73, 6-(3-Chloro-phenyl)-5-methyl-3-[4-(4-methyl-piperazin-1-yl)-phenyl]-pyrazolo[1,5-a]pyrimidin-7-ylamine], for which the values for the IC50 (in assay [1]; at human Flt-3 (setting [2])) were below 1 µM and above 10 µM, respectively.
In the case of `COc1cc(N2CCN(C)CC2)ccc1-c1cnn2c(N)c(-c3cccc(Cl)c3)c(C)nc12` [Example 75, 6-(3-Chloro-phenyl)-3-[2-methoxy-4-(4-methyl-piperazin-1-yl)-phenyl]-5-methyl-pyrazolo[1,5-a]pyrimidin-7-ylamine], the IC50 in assay [1] is 1 to 10 µM.
With `COc1cc(N2CCN(C)CC2)ccc1-c1cnn2c(N)c(-c3cccc(O)c3)cnc12` [Example 76, 3-{7-Amino-3-[2-methoxy-4-(4-methyl-piperazin-1-yl)-phenyl]-pyrazolo[1,5-a]pyrimidin-6-yl}-phenol], the IC50 (in assay [1]; at human Flt-3 (setting [2])) was below 1 µM each time.
For `CN1CCN(c2ccc(-c3cnn4c(N)c(-c5ccccc5Cl)cnc34)cc2)CC1` [Example 77, 6-(2-Chloro-phenyl)-3-[4-(4-methyl-piperazin-1-yl)-phenyl]-pyrazolo[1,5-a]pyrimidin-7-ylamine], the IC50 (in assay [1]; at human Flt-3 (setting [2])) was below 1 µM each time.
Regarding `CN1CCN(c2cccc(-c3cnn4c(N)c(-c5ccccc5Cl)cnc34)c2)CC1` [Example 78, 6-(2-Chloro-phenyl)-3-[3-(4-methyl-piperazin-1-yl)-phenyl]-pyrazolo[1,5-a]pyrimidin-7-ylamine], the IC50 (in assay [1]; on human Flt-3 (setting [2])) was below 1 µM throughout.
In the case of `Cc1nc2c(-c3ccc(N4CCN(C)CC4)cc3)cnn2c(N)c1-c1ccc(F)cc1` [Example 79, 6-(4-Fluoro-phenyl)-5-methyl-3-[4-(4-methyl-piperazin-1-yl)-phenyl]-pyrazolo[1,5-a]pyrimidin-7-ylamine], the IC50 in assay [1] is 1 to 10 µM; at human Flt-3 (setting [2]), above 10 µM.
The corresponding values for `Cc1nc2c(-c3cccc(N4CCN(C)CC4)c3)cnn2c(N)c1-c1ccc(F)cc1` [Example 80, 6-(4-Fluoro-phenyl)-5-methyl-3-[3-(4-methyl-piperazin-1-yl)-phenyl]-pyrazolo[1,5-a]pyrimidin-7-ylamine] are 1 to 10 µM and 1 to 10 µM.
In the same order, the values of `Cc1nc2c(-c3cccc(N4CCN(C5CCN(C)CC5)CC4)c3)cnn2c(N)c1-c1cccc(Cl)c1` [Example 81, 6-(3-Chloro-phenyl)-5-methyl-3-{3-[4-(1-methyl-piperidin-4-yl)-piperazin-1-yl]-phenyl}-pyrazolo[1,5-a]pyrimidin-7-ylamine] are below 1 µM and above 10 µM.
In the same order, the values of `Cc1nc2c(-c3cccc(N4CCN(C)CC4)c3)cnn2c(N)c1-c1ccc(F)c(Cl)c1` [Example 82, 6-(3-Chloro-4-fluoro-phenyl)-5-methyl-3-[3-(4-methyl-piperazin-1-yl)-phenyl]pyrazolo[1,5-a]pyrimidin-7-ylamine] are above 10 µM and above 10 µM.
Regarding `Cc1nc2c(-c3ccc(N4CCN(C)CC4)cc3)cnn2c(N)c1-c1ccc(F)c(Cl)c1` [Example 83, 6-(3-Chloro-4-fluoro-phenyl)-5-methyl-3-[4-(4-methyl-piperazin-1-yl)-phenyl]-pyrazolo[1,5-a]pyrimidin-7-ylamine], the IC50 (in assay [1]; at human Flt-3 (setting [2])) was above 10 µM in each case.
For the compound `Cc1nc2c(-c3cccc(N4CCN(C)CC4)c3)cnn2c(N)c1-c1cccc(Br)c1` [Example 84, 6-(3-Bromo-phenyl)-5-methyl-3-[3-(4-methyl-piperazin-1-yl)-phenyl]-pyrazolo[1,5-a]pyrimidin-7-ylamine], the figures for the IC50 (in assay [1]; on human Flt-3 (setting [2])) were 1 to 10 µM and above 10 µM, respectively.
In the same order, the values of `CN1CCN(c2cccc(-c3cnn4c(N)c(Cc5cccc(Br)c5)cnc34)c2)CC1` [Example 85, 6-(3-Bromo-benzyl)-3-[3-(4-methyl-piperazin-1-yl)-phenyl]pyrazolo[1,5-a]pyrimidin-7-ylamine] are above 10 µM and above 10 µM.
As for `CN1CCN(c2cccc(-c3cnn4c(N)c(-c5cccc(Br)c5)cnc34)c2)CC1` [Example 86, 6-(3-Bromo-phenyl)-3-[3-(4-methyl-piperazin-1-yl)-phenyl]-pyrazolo[1,5-a]pyrimidin-7-ylamine], the half-maximal inhibitory concentration (IC50) in assay [1] is below 1 µM; at human Flt-3 (setting [2]), above 10 µM.
As for `Cc1nc2c(-c3cccc(N4CCOCC4)c3)cnn2c(N)c1-c1cccc(Cl)c1` [Example 87, 6-(3-Chloro-phenyl)-5-methyl-3-(3-morpholin-4-yl-phenyl)-pyrazolo[1,5-a]pyrimidin-7-ylamine], the IC50 was 1 to 10 µM in assay [1] and above 10 µM on human Flt-3 (setting [2]).
The corresponding values for `COc1ccc(-c2cnn3c(N)c(-c4cccc(Cl)c4)c(C)nc23)cc1` [Example 88, 6-(3-Chloro-phenyl)-3-(4-methoxy-phenyl)-5-methyl-pyrazolo[1,5-a]pyrimidin-7-ylamine] are 1 to 10 µM and above 10 µM.
In the same order, the values of `Cc1nc2c(-c3cccc(N4C[C@@H](C)O[C@@H](C)C4)c3)cnn2c(N)c1-c1cccc(Cl)c1` [Example 89, 6-(3-Chloro-phenyl)-3-[3-((2R,6S)-2,6-dimethyl-morpholin-4-yl)-phenyl]-5-methyl-pyrazolo[1,5-a]pyrimidin-7-ylamine] are 1 to 10 µM and above 10 µM.
In the same order, the values of `Cc1nc2c(-c3cccc(N4CCN(CCO)CC4)c3)cnn2c(N)c1-c1cccc(Cl)c1` [Example 90, 2-(4-{3-[7-Amino-6-(3-chloro-phenyl)-5-methyl-pyrazolo[1,5-a]pyrimidin-3-yl]-phenyl}-piperazin-1-yl)-ethanol] are 1 to 10 µM and above 10 µM.
With `CN1CCN(c2cccc(-c3cnn4c(N)c(Cc5ccccc5)cnc34)c2)CC1` [Example 91, 6-Benzyl-3-[3-(4-methyl-piperazin-1-yl)-phenyl]-pyrazolo[1,5-a]pyrimidin-7-ylamine], the IC50 in assay [1] was 1 to 10 µM; at human Flt-3 (setting [2]) it was above 10 µM.
